Assay results from ChEMBL document CHEMBL5154800, “Identification of N, C-capped di- and tripeptides as selective immunoproteasome inhibitors” (Eur J Med Chem, 2022).

system: HT-29; assay: Antiproliferative activity against human HT-29 cells assessed as growth inhibition at 0.2 uM measured after 72 hrs by MTT assay; format: functional; details: read-out: GI

SMILES	inhibition of growth at 0.2 µM [%]
Cc1ccc(CNC(=O)[C@H](Cc2ccccc2)NC(=O)[C@H](CCC(=O)NC(C)(C)C)NC(=O)[C@H](CNC(=O)CCl)NC(=O)OC(C)(C)C)cc1	11
Cc1ccc(CNC(=O)[C@H](Cc2ccccc2)NC(=O)[C@H](CCC(=O)NC(C)(C)C)NC(=O)CCNC(=O)/C(C#N)=C/C2CC2)cc1	< 20
Cc1ccc(CNC(=O)[C@H](Cc2ccccc2)NC(=O)[C@H](CCC(=O)NC(C)(C)C)NC(=O)[C@H](CNC(=O)CCl)NC(=O)CN2CCOCC2)cc1	< 20
Cc1ccc(CNC(=O)[C@H](Cc2ccccc2)NC(=O)[C@H](CCC(=O)NC(C)(C)C)NC(=O)CCNC(=O)/C(C#N)=C/c2ccc(Cl)cc2)cc1	< 20
Cc1ccc(CNC(=O)[C@H](Cc2ccccc2)NC(=O)[C@H](CCC(=O)NC(C)(C)C)NC(=O)CCNC(=O)/C(C#N)=C/C(C)C)cc1	< 20
COc1ccc(/C=C(\C#N)C(=O)NCCC(=O)N[C@@H](CCC(=O)NC(C)(C)C)C(=O)N[C@@H](Cc2ccccc2)C(=O)NCc2ccc(C)cc2)cc1	< 20
Cc1ccc(CNC(=O)[C@H](Cc2c[nH]c3ccccc23)NC(=O)[C@H](CCC(=O)NC(C)(C)C)NC(=O)CCNC(=O)CCl)cc1	< 20
Cc1ccc(CNC(=O)[C@H](Cc2ccccc2)NC(=O)[C@H](CCC(=O)NC(C)(C)C)NC(=O)CCNC(=O)/C(C#N)=C/c2nccs2)cc1	< 20

system: DOHH-2; assay: Antiproliferative activity against human DOHH-2 cells assessed as growth inhibition at 0.2 uM measured after 72 hrs by MTT assay; format: functional; details: read-out: GI

SMILES	inhibition of growth at 0.2 µM [%]
Cc1ccc(CNC(=O)[C@H](Cc2ccccc2)NC(=O)[C@H](CCC(=O)NC(C)(C)C)NC(=O)[C@H](CNC(=O)CCl)NC(=O)OC(C)(C)C)cc1	< 20
Cc1ccc(CNC(=O)[C@H](Cc2ccccc2)NC(=O)[C@H](CCC(=O)NC(C)(C)C)NC(=O)CCNC(=O)/C(C#N)=C/C2CC2)cc1	25
Cc1ccc(CNC(=O)[C@H](Cc2ccccc2)NC(=O)[C@H](CCC(=O)NC(C)(C)C)NC(=O)[C@H](CNC(=O)CCl)NC(=O)CN2CCOCC2)cc1	< 20
Cc1ccc(CNC(=O)[C@H](Cc2ccccc2)NC(=O)[C@H](CCC(=O)NC(C)(C)C)NC(=O)CCNC(=O)/C(C#N)=C/c2ccc(Cl)cc2)cc1	< 20
Cc1ccc(CNC(=O)[C@H](Cc2ccccc2)NC(=O)[C@H](CCC(=O)NC(C)(C)C)NC(=O)CCNC(=O)/C(C#N)=C/C(C)C)cc1	27
COc1ccc(/C=C(\C#N)C(=O)NCCC(=O)N[C@@H](CCC(=O)NC(C)(C)C)C(=O)N[C@@H](Cc2ccccc2)C(=O)NCc2ccc(C)cc2)cc1	< 20
Cc1ccc(CNC(=O)[C@H](Cc2c[nH]c3ccccc23)NC(=O)[C@H](CCC(=O)NC(C)(C)C)NC(=O)CCNC(=O)CCl)cc1	< 20
Cc1ccc(CNC(=O)[C@H](Cc2ccccc2)NC(=O)[C@H](CCC(=O)NC(C)(C)C)NC(=O)CCNC(=O)/C(C#N)=C/c2nccs2)cc1	22

system: not listed separately; assay: Selectivity ratio of IC50 for inhibition of 20S proteasome beta 5c subunit (unknown origin) to IC50 for inhibition of 20S proteasome subunit beta-5i; details: not given

SMILES	Ratio IC50
Cc1ccc(CNC(=O)[C@H](Cc2ccccc2)NC(=O)[C@H](CCC(=O)NC(C)(C)C)NC(=O)[C@H](CNC(=O)CCl)NC(=O)OC(C)(C)C)cc1	6
Cc1ccc(CNC(=O)[C@H](Cc2ccccc2)NC(=O)[C@H](CCC(=O)NC(C)(C)C)NC(=O)CCNC(=O)/C(C#N)=C/C2CC2)cc1	7
Cc1ccc(CNC(=O)[C@H](Cc2ccccc2)NC(=O)[C@H](CCC(=O)NC(C)(C)C)NC(=O)[C@H](CNC(=O)CCl)NC(=O)CN2CCOCC2)cc1	14
Cc1ccc(CNC(=O)[C@H](Cc2ccccc2)NC(=O)[C@H](CCC(=O)NC(C)(C)C)NC(=O)CCNC(=O)/C(C#N)=C/c2ccc(Cl)cc2)cc1	22
Cc1ccc(CNC(=O)[C@H](Cc2ccccc2)NC(=O)[C@H](CCC(=O)NC(C)(C)C)NC(=O)CCNC(=O)/C(C#N)=C/C(C)C)cc1	4
COc1ccc(/C=C(\C#N)C(=O)NCCC(=O)N[C@@H](CCC(=O)NC(C)(C)C)C(=O)N[C@@H](Cc2ccccc2)C(=O)NCc2ccc(C)cc2)cc1	2
Cc1ccc(CNC(=O)[C@H](Cc2c[nH]c3ccccc23)NC(=O)[C@H](CCC(=O)NC(C)(C)C)NC(=O)CCNC(=O)CCl)cc1	2
Cc1ccc(CNC(=O)[C@H](Cc2ccccc2)NC(=O)[C@H](CCC(=O)NC(C)(C)C)NC(=O)CCNC(=O)/C(C#N)=C/c2nccs2)cc1	4

target: T1, Proteasome Macropain subunit MB1 (Homo sapiens, UniProt P28074); assay: Inhibition of 20S proteasome subunit beta-5c (unknown origin) using Ac-WLA-AMC as substrate and measured after 30 mins; details: not given
T1 sequence (P28074 whole entry): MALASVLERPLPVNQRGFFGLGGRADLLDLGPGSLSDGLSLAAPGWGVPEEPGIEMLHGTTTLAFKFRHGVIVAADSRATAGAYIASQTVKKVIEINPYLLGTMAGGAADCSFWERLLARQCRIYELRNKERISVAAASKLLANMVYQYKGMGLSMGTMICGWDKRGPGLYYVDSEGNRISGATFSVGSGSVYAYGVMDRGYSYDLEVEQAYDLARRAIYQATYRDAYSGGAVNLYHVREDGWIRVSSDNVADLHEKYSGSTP

SMILES	IC50 [nM]
Cc1ccc(CNC(=O)[C@H](Cc2c[nH]c3ccccc23)NC(=O)[C@H](CCC(=O)NC(C)(C)C)NC(=O)CCNC(=O)CCl)cc1	13.7

system: MCF7; assay: Antiproliferative activity against human MCF7 cells assessed as growth inhibition at 0.2 uM measured after 72 hrs by MTT assay; format: functional; details: read-out: GI

SMILES	inhibition of growth at 0.2 µM [%]
Cc1ccc(CNC(=O)[C@H](Cc2ccccc2)NC(=O)[C@H](CCC(=O)NC(C)(C)C)NC(=O)[C@H](CNC(=O)CCl)NC(=O)OC(C)(C)C)cc1	< 20
Cc1ccc(CNC(=O)[C@H](Cc2ccccc2)NC(=O)[C@H](CCC(=O)NC(C)(C)C)NC(=O)CCNC(=O)/C(C#N)=C/C2CC2)cc1	22
Cc1ccc(CNC(=O)[C@H](Cc2ccccc2)NC(=O)[C@H](CCC(=O)NC(C)(C)C)NC(=O)[C@H](CNC(=O)CCl)NC(=O)CN2CCOCC2)cc1	< 20
Cc1ccc(CNC(=O)[C@H](Cc2ccccc2)NC(=O)[C@H](CCC(=O)NC(C)(C)C)NC(=O)CCNC(=O)/C(C#N)=C/c2ccc(Cl)cc2)cc1	43
Cc1ccc(CNC(=O)[C@H](Cc2ccccc2)NC(=O)[C@H](CCC(=O)NC(C)(C)C)NC(=O)CCNC(=O)/C(C#N)=C/C(C)C)cc1	< 20
COc1ccc(/C=C(\C#N)C(=O)NCCC(=O)N[C@@H](CCC(=O)NC(C)(C)C)C(=O)N[C@@H](Cc2ccccc2)C(=O)NCc2ccc(C)cc2)cc1	< 20
Cc1ccc(CNC(=O)[C@H](Cc2c[nH]c3ccccc23)NC(=O)[C@H](CCC(=O)NC(C)(C)C)NC(=O)CCNC(=O)CCl)cc1	< 20
Cc1ccc(CNC(=O)[C@H](Cc2ccccc2)NC(=O)[C@H](CCC(=O)NC(C)(C)C)NC(=O)CCNC(=O)/C(C#N)=C/c2nccs2)cc1	< 20

system: Pfeiffer; assay: Antiproliferative activity against human Pfeiffer cells assessed as growth inhibition at 0.2 uM measured after 72 hrs by MTT assay; format: functional; details: read-out: GI

SMILES	inhibition of growth at 0.2 µM [%]
Cc1ccc(CNC(=O)[C@H](Cc2ccccc2)NC(=O)[C@H](CCC(=O)NC(C)(C)C)NC(=O)[C@H](CNC(=O)CCl)NC(=O)OC(C)(C)C)cc1	29
Cc1ccc(CNC(=O)[C@H](Cc2ccccc2)NC(=O)[C@H](CCC(=O)NC(C)(C)C)NC(=O)CCNC(=O)/C(C#N)=C/C2CC2)cc1	< 20
Cc1ccc(CNC(=O)[C@H](Cc2ccccc2)NC(=O)[C@H](CCC(=O)NC(C)(C)C)NC(=O)[C@H](CNC(=O)CCl)NC(=O)CN2CCOCC2)cc1	32
Cc1ccc(CNC(=O)[C@H](Cc2ccccc2)NC(=O)[C@H](CCC(=O)NC(C)(C)C)NC(=O)CCNC(=O)/C(C#N)=C/c2ccc(Cl)cc2)cc1	34
Cc1ccc(CNC(=O)[C@H](Cc2ccccc2)NC(=O)[C@H](CCC(=O)NC(C)(C)C)NC(=O)CCNC(=O)/C(C#N)=C/C(C)C)cc1	27
COc1ccc(/C=C(\C#N)C(=O)NCCC(=O)N[C@@H](CCC(=O)NC(C)(C)C)C(=O)N[C@@H](Cc2ccccc2)C(=O)NCc2ccc(C)cc2)cc1	28
Cc1ccc(CNC(=O)[C@H](Cc2c[nH]c3ccccc23)NC(=O)[C@H](CCC(=O)NC(C)(C)C)NC(=O)CCNC(=O)CCl)cc1	28
Cc1ccc(CNC(=O)[C@H](Cc2ccccc2)NC(=O)[C@H](CCC(=O)NC(C)(C)C)NC(=O)CCNC(=O)/C(C#N)=C/c2nccs2)cc1	22

target: T2, Proteasome subunit beta type-8 (Homo sapiens, UniProt P28062); assay: Inhibition of 20S proteasome subunit beta-5i (unknown origin) using Ac-ANW-AMC as substrate and measured after 30 mins; details: not given
T2 sequence (P28062 whole entry): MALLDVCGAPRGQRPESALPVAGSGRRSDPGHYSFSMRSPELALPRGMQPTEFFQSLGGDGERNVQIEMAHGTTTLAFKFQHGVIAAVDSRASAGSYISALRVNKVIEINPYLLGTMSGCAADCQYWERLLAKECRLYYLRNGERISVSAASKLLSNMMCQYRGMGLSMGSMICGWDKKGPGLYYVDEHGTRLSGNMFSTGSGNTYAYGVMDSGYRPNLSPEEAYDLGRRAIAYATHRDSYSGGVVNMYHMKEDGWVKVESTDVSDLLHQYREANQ

SMILES	IC50 [nM]
Cc1ccc(CNC(=O)[C@H](Cc2ccccc2)NC(=O)[C@H](CCC(=O)NC(C)(C)C)NC(=O)CCNC(=O)/C(C#N)=C/C2CC2)cc1	9.64
Cc1ccc(CNC(=O)[C@H](Cc2c[nH]c3ccccc23)NC(=O)[C@H](CCC(=O)NC(C)(C)C)NC(=O)CCNC(=O)CCl)cc1	7.33

system: HCT-116; assay: Antiproliferative activity against human HCT-116 cells assessed as growth inhibition at 0.2 uM measured after 72 hrs by MTT assay; format: functional; details: read-out: GI

SMILES	inhibition of growth at 0.2 µM [%]
Cc1ccc(CNC(=O)[C@H](Cc2ccccc2)NC(=O)[C@H](CCC(=O)NC(C)(C)C)NC(=O)[C@H](CNC(=O)CCl)NC(=O)OC(C)(C)C)cc1	46
Cc1ccc(CNC(=O)[C@H](Cc2ccccc2)NC(=O)[C@H](CCC(=O)NC(C)(C)C)NC(=O)CCNC(=O)/C(C#N)=C/C2CC2)cc1	26
Cc1ccc(CNC(=O)[C@H](Cc2ccccc2)NC(=O)[C@H](CCC(=O)NC(C)(C)C)NC(=O)[C@H](CNC(=O)CCl)NC(=O)CN2CCOCC2)cc1	29
Cc1ccc(CNC(=O)[C@H](Cc2ccccc2)NC(=O)[C@H](CCC(=O)NC(C)(C)C)NC(=O)CCNC(=O)/C(C#N)=C/c2ccc(Cl)cc2)cc1	28
Cc1ccc(CNC(=O)[C@H](Cc2ccccc2)NC(=O)[C@H](CCC(=O)NC(C)(C)C)NC(=O)CCNC(=O)/C(C#N)=C/C(C)C)cc1	30
COc1ccc(/C=C(\C#N)C(=O)NCCC(=O)N[C@@H](CCC(=O)NC(C)(C)C)C(=O)N[C@@H](Cc2ccccc2)C(=O)NCc2ccc(C)cc2)cc1	32
Cc1ccc(CNC(=O)[C@H](Cc2c[nH]c3ccccc23)NC(=O)[C@H](CCC(=O)NC(C)(C)C)NC(=O)CCNC(=O)CCl)cc1	29
Cc1ccc(CNC(=O)[C@H](Cc2ccccc2)NC(=O)[C@H](CCC(=O)NC(C)(C)C)NC(=O)CCNC(=O)/C(C#N)=C/c2nccs2)cc1	< 20
